{
  "source": "patent US9725490B2",
  "about": "“ERAP1-derived peptide and use thereof” (TOKUSHIMA UNIVERSITY, priority 2011, dated 2017)",
  "assay_type_in_all_cases": "cell-based, human",
  "key": {"[1]": {"tested_on": "Akt, MAPK and ERα phosphorylation", "assay": "Phosphorylation of Akt, MAPK and ERα in tamoxifen-resistant MCF-7 cells", "method": "FIG. 14 is a diagram illustrating the suppression effect of the ERAP1-peptide on tamoxifen-resistant MCF-7 cells. […] The tamoxifen-resistant MCF-7 cells were treated with the ERAP1-peptide in each concentration (0, 5 and 10 μM). Then, immediately, the cells were stimulated with 10 nM E2 for 24 hours.\nMCF-7 cells and tamoxifen-resistant MCF-7 cells were seeded in 1×10^5/well in DMEM/F12 culture medium containing phenol red on a 24-well plate and stood in a CO2 incubator for 24 hours. Then, the culture medium was exchanged with DMEM/F12 culture medium containing 10% FBS, 1% penicillin/streptomycin and 1 μM tamoxifen, and not containing phenol red, and the cells were further pre-cultured for 24 hours. The supernatant was removed, and then 180 μl of […] ERAP1-peptide was added (final concentration: 10 μM), and subsequently 20 μl of 100 nM E2 was added (final concentration: 10 nM), and the mixture was reacted for 24 hours. The reaction solution was removed, and then 100 μl of SDS-sample buffer was added and the cells were lysed. The cells were subjected to boiling treatment at 95° C. for 5 minutes, and subjected to polyacrylic amide electrophoresis. Phosphorylations of Akt and MAPK were detected with anti-phosphorylation Akt (Ser473) (587F11) and anti-phosphorylation p44/42 MAP Kinase (Thr202/Tyr204) antibodies, and phosphorylation of ERα was detected with anti-phosphorylation ERα (Ser104/106), anti-phosphorylation ERα (Ser118), anti-phosphorylation ERα (Ser167), anti-phosphorylation ERα (Ser305) and anti-phosphorylation ERα (Tyr537) antibodies."}, "[2]": {"tested_on": "protein expression in MCF-7 cells", "assay": "2DICAL proteome analysis, MCF-7", "details": "10 μM, 10 nM E2 1 hour, versus E2 or E2 + scramble", "method": "MCF-7 cells were treated with 10 μM ERAP1-peptide (Peptide) and the ERAP1-scramble peptide (scrPeptide). Then, immediately, the cells were stimulated with 10 nM E2 for 1 hour. Subsequently, the obtained cell lysate solution was digested with trypsin and subjected to 2DICAL. […] MCF-7 cells were treated with 10 μM ERAP1-peptide. Then, immediately, the cells were stimulated with 10 nM E2 for 5, 10 and 15 hours. Then, RNA extraction and then Cy3-cRNA synthesis were performed, and the Cy3-cRNA was subjected to the microarray. The data were statistically analyzed by GeneSpring software, and the ratio to the value at 0 hour was calculated. **P<0.01.\nMCF-7 cells were treated with 10 μM ERAP1-peptide and ERAP1-scramble peptide. Then, immediately, the cells were stimulated with 10 nM E2. Then, the cells were fixed with methanol. The cells were dried under reduced pressure, and then treated with trypsin in the presence of 2% sodium deoxycholate and 5 M urea at 37° C. for 20 hours. The protein was extracted with ethyl acetate. […] The data were calculated as a ratio to the value at 0 hour."}, "[3]": {"tested_on": "generation of ROS in MCF-7 cells", "assay": "ROS production in the mitochondria, DHR123 flow cytometry", "method": "FIG. 41-2 is a diagram illustrating that ROS production in the mitochondria by E2 stimulation is induced through ERAP1. […] MCF-7 cells, and MCF-7 cells suppressed for expression of ERAP1, and HCC1395 cells were treated with 10 μM DHR123 for 15 minutes. The cells were washed, and then stimulated with 10 μM ERAP1-peptide and 10 nM E2 for 24 hours, and analyzed by flow cytometry. Cells treated with 1 mM H2O2 for 24 hours were used as a positive control. The data are representative examples of two independent experiments."}},
  "data": [
    {"compound": "CSCC[C@H](NC(=O)[C@H](CCC(N)=O)NC(=O)[C@H](CCCNC(=N)N)NC(=O)[C@H](CCCNC(=N)N)NC(=O)[C@H](CCCNC(=N)N)NC(=O)[C@H](CCCNC(=N)N)NC(=O)[C@H](CCCNC(=N)N)NC(=O)[C@H](CCCNC(=N)N)NC(=O)[C@H](CCCNC(=N)N)NC(=O)[C@H](CCCNC(=N)N)NC(=O)[C@H](CCCNC(=N)N)NC(=O)[C@H](CCCNC(=N)N)NC(=O)[C@@H](N)CCCNC(=N)N)C(=O)N[C@@H](CC(C)C)C(=O)N[C@@H](CO)C(=O)N[C@@H](CC(=O)O)C(=O)N[C@@H](CC(C)C)C(=O)N[C@H](C(=O)N[C@@H](CC(C)C)C(=O)N[C@@H](CCC(N)=O)C(=O)N[C@@H](CC(C)C)C(=O)N[C@@H](CCCNC(=N)N)C(=O)N[C@@H](CCC(N)=O)C(=O)N[C@@H](CCCNC(=N)N)C(=O)O)[C@@H](C)O", "note": "[ERAP1-peptide]", "values": [
      {"measurement": "phosphorylation of ERα", "setting": "[1]; Tam-R MCF-7, 10 μM peptide", "result": "all phosphorylation of ERα was also decreased"},
      {"measurement": "phosphorylations of Akt and MAPK", "setting": "[1]; Tam-R MCF-7, tamoxifen alone or tamoxifen and E2", "result": "phosphorylations of Akt and MAPK were remarkably decreased"},
      {"measurement": "change of protein expressions", "setting": "[2]", "result": "decreased significantly and genome-widely"},
      {"measurement": "generation of ROS", "setting": "[3]; MCF-7 in which expression of ERAP1 was suppressed", "result": "had no influence on the generation of ROS"},
      {"measurement": "generation of ROS", "setting": "[3]; MCF-7 transfected with control siRNA, 10 μM, E2 24 hours", "result": "generation of ROS was remarkably suppressed"}
    ]}
  ]
}
